{"source": "PubChem BioAssay AID1963427", "about": "(Molecular Pharmacology Branch, DTP, NCI, 2024);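 also: compound exposure lasted seven days after spheroids formed for three days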;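 as to viability, T/C: 100% = DMSO vehicle control wells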", "tested_on": "317291-083-R-J1-PDC complex spheroid growth", "assay": "Anticancer human tumor 317291-083-R-J1-PDC patient-derived soft tissue sarcoma cell line growth inhibition [Asc]", "conditions": "for IC50: curve of first compound; for viability, T/C: stronger effect = lower value", "method_in_brief": "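Complex solid-tumor spheroids incorporating human endothelial and mesenchymal stem cells received single agents or combinations over half-log dilution ranges anchored to clinical Cmax.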", "data": [{"smiles": "COc1c(OCCCN2CCOCC2)ccc2c3n(c(=NC(=O)c4cnc(N)nc4)nc12)CCN3", "note": "+ Cc1c(S(C)(=O)=O)c(-c2cc(F)cc(N3CCN(c4ccc(NS(=O)(=O)c5ccc(NC(CCN6CCC(C(=O)OCCCP(=O)(O)O)CC6)CSc6ccccc6)c(S(=O)(=O)C(F)(F)F)c5)cc4)CC3)c2)c(-c2ccc(Cl)cc2)n1C(C)C", "values": [{"measurement": "IC50", "setting": "second compound 0.0316 µM", "value": 0.104, "unit": "µM"}, {"measurement": "IC50", "setting": "second compound 0.1 µM", "value": 0.088, "unit": "µM"}, {"measurement": "IC50", "setting": "second compound 0.316 µM", "value": 0.0884, "unit": "µM"}, {"measurement": "IC50", "setting": "second compound 1 µM", "value": 0.078, "unit": "µM"}, {"measurement": "IC50", "setting": "second compound 3.16 µM", "value": 0.0629, "unit": "µM"}, {"measurement": "IC50", "setting": "second compound 10 µM", "value": 0.0953, "unit": "µM"}, {"measurement": "viability, T/C", "setting": "second compound 0.0316 µM, first compound 0.00316 µM", "value": 116, "unit": "%"}, {"measurement": "viability, T/C", "setting": "second compound 0.0316 µM, first compound 0.01 µM", "value": 116, "unit": "%"}, {"measurement": "viability, T/C", "setting": "second compound 0.0316 µM, first compound 0.0316 µM", "value": 78, "unit": "%"}, {"measurement": "viability, T/C", "setting": "second compound 0.0316 µM, first compound 0.1 µM", "value": 52.9, "unit": "%"}, {"measurement": "viability, T/C", "setting": "second compound 0.0316 µM, first compound 0.316 µM", "value": 27, "unit": "%"}, {"measurement": "viability, T/C", "setting": "second compound 0.0316 µM, first compound 1 µM", "value": 13, "unit": "%"}, {"measurement": "viability, T/C", "setting": "second compound 0.1 µM, first compound 0.00316 µM", "value": 106, "unit": "%"}, {"measurement": "viability, T/C", "setting": "second compound 0.1 µM, first compound 0.01 µM", "value": 76.6, "unit": "%"}, {"measurement": "viability, T/C", "setting": "second compound 0.1 µM, first compound 0.0316 µM", "value": 62.5, "unit": "%"}, {"measurement": "viability, T/C", "setting": "second compound 0.1 µM, first compound 0.1 µM", "value": 54.7, "unit": "%"}, {"measurement": "viability, T/C", "setting": "second compound 0.1 µM, first compound 0.316 µM", "value": 28.1, "unit": "%"}, {"measurement": "viability, T/C", "setting": "second compound 0.1 µM, first compound 1 µM", "value": 13.5, "unit": "%"}, {"measurement": "viability, T/C", "setting": "second compound 0.316 µM, first compound 0.00316 µM", "value": 91.3, "unit": "%"}, {"measurement": "viability, T/C", "setting": "second compound 0.316 µM, first compound 0.01 µM", "value": 85.5, "unit": "%"}, {"measurement": "viability, T/C", "setting": "second compound 0.316 µM, first compound 0.0316 µM", "value": 69.7, "unit": "%"}, {"measurement": "viability, T/C", "setting": "second compound 0.316 µM, first compound 0.1 µM", "value": 44.7, "unit": "%"}, {"measurement": "viability, T/C", "setting": "second compound 0.316 µM, first compound 0.316 µM", "value": 30.1, "unit": "%"}, {"measurement": "viability, T/C", "setting": "second compound 0.316 µM, first compound 1 µM", "value": 11.7, "unit": "%"}, {"measurement": "viability, T/C", "setting": "second compound 1 µM, first compound 0.00316 µM", "value": 86.2, "unit": "%"}, {"measurement": "viability, T/C", "setting": "second compound 1 µM, first compound 0.01 µM", "value": 88, "unit": "%"}, {"measurement": "viability, T/C", "setting": "second compound 1 µM, first compound 0.0316 µM", "value": 63.2, "unit": "%"}, {"measurement": "viability, T/C", "setting": "second compound 1 µM, first compound 0.1 µM", "value": 44.8, "unit": "%"}, {"measurement": "viability, T/C", "setting": "second compound 1 µM, first compound 0.316 µM", "value": 28.2, "unit": "%"}, {"measurement": "viability, T/C", "setting": "second compound 1 µM, first compound 1 µM", "value": 12.1, "unit": "%"}, {"measurement": "viability, T/C", "setting": "second compound 3.16 µM, first compound 0.00316 µM", "value": 65.6, "unit": "%"}, {"measurement": "viability, T/C", "setting": "second compound 3.16 µM, first compound 0.01 µM", "value": 54.8, "unit": "%"}, {"measurement": "viability, T/C", "setting": "second compound 3.16 µM, first compound 0.0316 µM", "value": 60.9, "unit": "%"}, {"measurement": "viability, T/C", "setting": "second compound 3.16 µM, first compound 0.1 µM", "value": 43.7, "unit": "%"}, {"measurement": "viability, T/C", "setting": "second compound 3.16 µM, first compound 0.316 µM", "value": 21.3, "unit": "%"}, {"measurement": "viability, T/C", "setting": "second compound 3.16 µM, first compound 1 µM", "value": 9.02, "unit": "%"}, {"measurement": "viability, T/C", "setting": "second compound 10 µM, first compound 0.00316 µM", "value": 100, "unit": "%"}, {"measurement": "viability, T/C", "setting": "second compound 10 µM, first compound 0.01 µM", "value": 90.2, "unit": "%"}, {"measurement": "viability, T/C", "setting": "second compound 10 µM, first compound 0.0316 µM", "value": 70.7, "unit": "%"}, {"measurement": "viability, T/C", "setting": "second compound 10 µM, first compound 0.1 µM", "value": 54.2, "unit": "%"}, {"measurement": "viability, T/C", "setting": "second compound 10 µM, first compound 0.316 µM", "value": 19.2, "unit": "%"}, {"measurement": "viability, T/C", "setting": "second compound 10 µM, first compound 1 µM", "value": 7.2, "unit": "%"}]}]}
